Assay results as given in ChEMBL document CHEMBL1156298, “New inhibitors for expression of IgE receptor on human mast cell” (Bioorg Med Chem Lett, 2010).
Activity calls are given as the source filed them. The rule behind the calls is not given here.

Tests used:
[1] = tested on: HMC1; assay: Inhibition of FCepsilonRI expression in human HMC1 cells at 50 to 100 uM after 72 hrs by flow cytometry; type: functional, cell-based
[2] = Cytotoxicity against human HMC1 cells assessed induction of morphological changes at 50 uM; settings: hmc1, 50 µM
[3] = Cytotoxicity against human HMC1 cells assessed induction of cell death at 50 uM; type: cell-based; settings: hmc1, 50 µM
[4] = tested on: HMC1; assay: Inhibition of FCepsilonRI expression in human HMC1 cells at 100 uM after 72 hrs by flow cytometry; type: functional, cell-based
[5] = tested on: HMC1; assay: Inhibition of FCepsilonRI gamma subunit mRNA expression in human HMC1 cells at 50 uM after 36 hrs by RT-PCR analysis; type: functional, cell-based
[6] = tested on: HMC1; assay: Inhibition of FCepsilonRI alpha subunit mRNA expression in human HMC1 cells at 50 uM after 36 hrs by RT-PCR analysis; type: functional, cell-based
[7] = tested on: HMC1; assay: Inhibition of FCepsilonRI beta subunit mRNA expression in human HMC1 cells at 50 uM after 36 hrs by RT-PCR analysis; type: functional, cell-based

Compound | inhibition [1] | Activity [2] | inhibition [4] | also measured
O=c1cc(-c2cc(O)c(O)c(O)c2)oc2cc(O)cc(O)c12 | Active | – | – | –
COc1c(O)cc(O)c2c(=O)cc(-c3ccccc3)oc12 [WOGONIN] | – | Toxic | – | –
O=c1cc(-c2ccc(O)c(O)c2)oc2cc(O)cc(O)c12 [LUTEOLIN] | – | Toxic | – | –
Oc1cc(O)c2cc(O)c(-c3cc(O)c(O)c(O)c3)[o+]c2c1 | Active | – | – | –
O=c1cc(-c2ccccc2)oc2c(O)c(O)cc(O)c12 [NORWOGONIN] | – | – | – | Activity [3]: Toxic
O=c1cc(-c2ccc(O)cc2)oc2cc(O)cc(O)c12 [APIGENIN] | – | Toxic | – | –
COc1cc(-c2[o+]c3cc(O)cc(O)c3cc2O)cc(OC)c1O [MALVIDIN] | – | Toxic | – | –
O=c1cc(-c2ccc(O)cc2)oc2cc(O)c(O)c(O)c12 [SCUTELLAREIN] | – | – | – | Activity [3]: Toxic
Oc1cc(O)c2cc(O)c(-c3ccc(O)c(O)c3)[o+]c2c1 [CYANIDIN] | – | Toxic | – | –
O=C(O[C@@H]1Cc2c(O)cc(O)cc2O[C@@H]1c1ccc(O)c(O)c1)c1cc(O)c(O)c(O)c1 | – | – | Active | –
COc1c(O)cc([C@H]2Oc3cc(O)cc(O)c3C[C@H]2OC(=O)c2cc(O)c(O)c(O)c2)cc1O | inactive | – | inactive | –
COc1cc([C@H]2Oc3cc(O)cc(O)c3C[C@H]2OC(=O)c2cc(O)c(O)c(O)c2)cc(O)c1O | inactive | – | inactive | –
Oc1cc(O)c2c(c1)O[C@H](c1ccc(O)c(O)c1)[C@H](O)C2 | – | – | Active | –
COc1c(O)cc(C(=O)O[C@@H]2Cc3c(O)cc(O)cc3O[C@@H]2c2cc(O)c(O)c(O)c2)cc1O | inactive | – | inactive | –
COc1cc(C(=O)O[C@@H]2Cc3c(O)cc(O)cc3O[C@@H]2c2cc(O)c(O)c(O)c2)cc(O)c1O | inactive | – | inactive | –
O=C(O[C@@H]1Cc2c(O)cc(O)cc2O[C@@H]1c1cc(O)c(O)c(O)c1)c1cc(O)c(O)c(O)c1 | – | – | – | inhibition [5]: Active; inhibition [6]: inactive; inhibition [7]: inactive
O=c1cc(-c2ccc(O)c(O)c2)oc2c([C@@H]3O[C@H](CO)[C@@H](O)[C@H](O)[C@H]3O)c(O)cc(O)c12 [ORIENTIN] | – | Toxic | – | –
O=C(O[C@@H]1Cc2c(O)cc(O)cc2O[C@H]1c1cc(O)c(O)c(O)c1)c1cc(O)c(O)c(O)c1 | – | – | Active | –
O=c1cc(-c2ccccc2)oc2cc(O)c(O)c(O)c12 [BAICALEIN] | – | Toxic | – | –
